The values below come from article PMC9186412, “Rational Framework for the Design of Trp- and Arg-Rich Peptide Antibiotics Against Multidrug-Resistant Bacteria” (Frontiers in Microbiology, 2022).

Where a SMILES comes first, the peptide text is derived from it. Bridges are numbered along the chain shown (N, C = ends). [ ]: non-standard residue; d: D form. The star is where a group is joined. X1 = CC[C@H](C)CCCCC(=O)*; Dab = NCC[C@H](N)C(=O)O

Test [1] relates to MDR strain PA239. Put plainly: Propidium iodide incorporation by flow cytometry. Format: cell-based, Pseudomonas aeruginosa. The following applies: 2 μM, treated for 3 h. The source says:
To examine whether the selected peptides kill their bacterial target mainly by membrane permeabilization, we used PI incorporation by the MDR strain PA239 (5 × 10^8 CFU/mL) quantitated by flow cytometry (Novocyte, United States) or visualized by video imaging using the digital microscope EVOS M7000 (Thermo Fisher Scientific, United States) in bright field or red fluorescence channel. In the flow cytometry experiments ([Di et al., 2020]), bacterial cells were either untreated or treated with different peptide E35 concentrations in MHB2 for 1 h at 37°C. We washed the bacteria-peptide mixture with PBS using an Eppendorf centrifuge at top speed for 7 min and incubated with PI in the dark for 15 min at room temperature. Tobramycin was used as a negative control with a 3-h long incubation. For video imaging, the broth medium was reduced to 20% in PBS (treated or untreated) to decrease the rate of cell division and PI incorporation assessed over time. Video images were recorded in real time using the 40× objective either in bright field or red fluorescence channel.
In general terms: Flow cytometry measures light scatter and fluorescence of single cells or particles in a stream.

The subject of test [2] is ESKAPE pathogens and Escherichia coli. The following applies: initial test strains; MHB2. As for the experimental part: Bacteria were incubated with each of the indicated peptides in MHB2. […] To assess bactericidal properties of the peptide, the assay was modified by using 15% fetal bovine serum (FBS, for a more physiologically relevant test condition) mixed with 25% MHB2 and 60% PBS. […] Data were analyzed using GraphPad Prism software.

For the compound `NC[C@H]1O[C@H](O[C@H]2[C@H](O)[C@@H](O[C@H]3O[C@H](CO)[C@@H](O)[C@H](N)[C@H]3O)[C@H](N)C[C@@H]2N)[C@H](N)C[C@@H]1O` [Tobramycin, reference compound], in test [1], the PI incorporation is 29%.

Take `CC[C@H](C)CCCCC(=O)N[C@@H](CCN)C(=O)N[C@H](C(=O)N[C@@H](CCN)C(=O)N[C@H]1CCNC(=O)[C@H]([C@@H](C)O)NC(=O)[C@H](CCN)NC(=O)[C@H](CCN)NC(=O)[C@H](CC(C)C)NC(=O)[C@@H](CC(C)C)NC(=O)[C@H](CCN)NC1=O)[C@@H](C)O` [Colistin, reference compound] (X1-[Dab]T[Dab][Dab][Dab][dL]L[Dab][Dab]T; lactam 4-C (inferred); N-terminus assumed): the “activity against the GPB strains” value in test [2] is “inactive”.
